From patent EP0480690A1, “Aqueous ophthalmic microemulsions of tepoxalin” (CIBA-GEIGY AG, priority 1990, dated 1992)

Columns and labels:
[1] = Solubility studies on tepoxalin in various vehicles; format: physicochemical
Excerpt: The low aqueous solubility of tepoxalin prompted solubility experiments with oils, surfactants, hydroxypropyl-beta-cyclodextrin, and combinations thereof. These experiments are summarized above in Table 1. A tepoxalin content of greater than 0.1% could be attained with a microemulsion using 1% castor oil and 2% of a Tween (polysorbate). […] The sequence of adding, mixing, and sonicating the drug and excipients is important in attaining a concentration greater than 0.1%.
Thus, 0.134% of the 0.15% drug in the emulsion resides in the interface.

rabbit cornea = test: In vitro corneal penetration in modified Ussing chambers; format: in vitro ADME; conditions: 0.1% suspension and 0.1% microemulsion, 0 to 240 minutes
Method: Modified Ussing type chambers (H.F. Edelhauser, J.R. Hoffert, P.O. Fromm, Invest. Ophthalmol. Vis. Sci., 4:290-296 (1965)) designed with 2.5 ml donor and 2.5 ml receiver cells (separated by the cornea which is mounted between two sealing rings) are used for the studies to determine penetration of the cornea by the microemulsions of the invention. The system is 2-chambered (in vitro cells) (see Figure 1) and is designed to monitor the penetration of drug entities across biological membranes. Usually the cells are temperature controlled by means of an exterior water jacket; the stirring of the dosing and receiving solutions in the cells is achieved by bubbling a gas through the cells. In the case of the cornea, the gas is a mixture of 5% CO₂ balanced with oxygen, to maintain physiological Ph.
The eyes were enucleated with the conjunctival sac and lids attached. The cornea was excised and mounted using the Dikstein and Maurice Technique (S. Dikstein and D.M. Maurice, J. Physiol., 221: 29-41 (1972)). […]
100 µl Aliquots were sampled from the receiver side over a 4-hour period (0, 15, 30, 45, 60, 90, 120, 180 and 240 minutes). […] The mounted corneas were removed from the cells and the percentage hydration calculated by weighing the isolated tissue before and after drying (the corneas were placed in an oven overnight at 45°C). […] Untreated corneas were assessed as controls. […]

[2] = Accelerated degradation of tepoxalin (16 hours at 100°C, HPLC); format: physicochemical
Method: The results of the first stability study prompted an investigation for a way to reformulate. Tepoxalin appears to hydrolyze at the amide group to form a carboxylic acid. An accelerated procedure has been developed to observe this degradation within 16 hours. The sample is analyzed by reversed-phase HPLC using a diode array for detection. […] With disodium Edetate in the microemulsion, the drug degraded at and above pH 7.0; degradation was minimal at pH's 5.0, 5.5 and 6.0. Thus, a second stability study was begun with 0.03% disodium Edetate in the formulation and the pH adjusted to 5.9 - 6.1 with a citric acid/sodium phosphate dibasic buffer.
A number of experiments were performed in succession in order to elucidate a mechanism for the degradation of tepoxalin in water and in the microemulsion and to determine optimum conditions for the tepoxalin microemulsion. The drug is suspected of vulnerability to acid and base catalysis of its […] amide group forming a carboxylic acid. The experiments and results: • (a) 0.1% tepoxalin was dissolved in 50:50 water: ethanol and aliquots were pH adjusted with 1M NaOH to 5.0, 6.0, 7.0, 8.0 and 12.6. The aliquots were heated in capped reaction vials for 16 hours at 100°C.
Two drops of 1M citric acid solution were added to an aliquot (1 ml) and the pH was adjusted with 1.0 M sodium phosphate dibasic to pH 5.0, 6.0, 7.0, and 7.6. The samples were heated as before.
The chromatograms show two major degradation products: one eluting before tepoxalin and another after.
The optimum pH appears between pH 6.2 and 6.4, but there is still significant degradation. • (d) The previous experiment (c) was repeated with disodium Edetate 0.03% in each sample and with the same pH range.
The presence of the second degradate that elutes before tepoxalin is also minimal. • (e) Experiment (d) was repeated with a broader pH range: 5.0, 5.5, 6.0, and 7.0.

COc1ccc(-n2nc(CCC(=O)N(C)O)cc2-c2ccc(Cl)cc2)cc1 [Tepoxalin, 3-[5-(4-chlorophenyl)-1-(4-methoxyphenyl)-3-pyrazolyl]-N-hydroxy-N-methylpropanamide]
Tepoxalin Solubility ([1]; Matrix: Water, Neat): 0.00044%
Tepoxalin Solubility ([1]; Oil, Surfactant Microemulsion: castor oil 1%, Tween 60 2%): 0.15%
Tepoxalin Solubility ([1]; Oil, Surfactant Microemulsion: castor oil 1%, Tween 80 2% (tepoxalin is added after microemulsion)): 0.085%
Tepoxalin Solubility ([1]; Oil, Surfactant Microemulsion: castor oil 1%, Tween 80 2% (tepoxalin is added before emulsion is prepared)): 0.147%
Tepoxalin Solubility ([1]; Oil, Surfactant Microemulsion: castor oil 2%, Tween 80 2%): 0.106%
Tepoxalin Solubility ([1]; Oil, Surfactant Microemulsion: castor oil 3%, Pluronic P-105 7%): 0.108%
Tepoxalin Solubility ([1]; Oils: Cottonseed, Neat): 0.06%
Tepoxalin Solubility ([1]; Oils: castor, Neat): 1.6%
Tepoxalin Solubility ([1]; Oils: mineral, Neat): 0.0%
Tepoxalin Solubility ([1]; Oils: perfluoro-decalin, Neat): 0.0%
Tepoxalin Solubility ([1]; Oils: sesame, Neat): 0.4%
Tepoxalin Solubility ([1]; Oils: sunflower Seed, Neat): 0.4%
Tepoxalin Solubility ([1]; Surfactant and HP-β-CD Solution: HP-β-CD 5%, Tween 80 2%): 0.097%
Tepoxalin Solubility ([1]; Surfactant and HP-β-CD Solution: HP-β-CD 10%, Tween 80 1%): 0.113%
Tepoxalin Solubility ([1]; Surfactants: Pluronic F-127, aqueous 6%): 0.035%
Tepoxalin Solubility ([1]; Surfactants: Pluronic P-105, aqueous 6% w/w): 0.099%
Tepoxalin Solubility ([1]; Surfactants: Tween 20, aqueous 2%): 0.053%
Tepoxalin Solubility ([1]; Surfactants: Tween 40, aqueous 2%): 0.066%
Tepoxalin Solubility ([1]; Surfactants: Tween 60, aqueous 2%): 0.079%
Tepoxalin Solubility ([1]; Surfactants: Tween 80, aqueous 1%): 0.030%
Tepoxalin Solubility ([1]; Surfactants: Tween 80, aqueous 2%): 0.089%
Tepoxalin Solubility ([1]; Surfactants: Tween 80, aqueous 3%): 0.099%
Tepoxalin Solubility ([1]; Surfactants: Tween 80, aqueous 6%): 0.120%
Maximum tepoxalin solubility for castor oil ([1]; castor oil): 1.6%
tepoxalin content ([1]; microemulsion using 1% castor oil and 2% of a Tween (polysorbate)): greater than 0.1%
drug in the emulsion that resides in the interface ([1]; of the 0.15% drug in the emulsion, 1% castor oil dispersed): 0.134%
penetration of tepoxalin across the cornea (rabbit cornea): penetrating the cornea from both formulations
degradation of tepoxalin ([2]; 0.1% microemulsion (castor oil, Tween 60, citrate/phosphate buffer), pH 5.0, 6.0, 7.0, 7.6, no Edetate, 16 hours at 100°C): The degradation occurs greatest at pH 5.0 and 7.6
degradation of tepoxalin ([2]; 0.1% tepoxalin in 50:50 water:ethanol, pH 5.0, 6.0, 7.0, 8.0, 12.6, 16 hours at 100°C): a degradation peak eluting after tepoxalin in samples at pH 6, 7, 8, 12.6 but not at pH 5.0
pH of optimum stability ([2]; microemulsion with disodium Edetate 0.03%, from tepoxalin peak areas and heights): optimum stability between 5.5 and 6.0
degradation of tepoxalin ([2]; microemulsion with disodium Edetate 0.03%, pH 5.0, 5.5, 6.0 and 7.0): Degradation was minimal at pH 5.0, 5.5, and 6.0
degradation of tepoxalin ([2]; microemulsion with disodium Edetate 0.03%, pH 6.0 to 7.0): Degradation is minimal at pH 6.0 and increases with pH to 7.0
pH of minimum degradation ([2]; microemulsion without Edetate, pH range 5 to 7.6): 6.2 - 6.4
